{"source": "patent US10328011B2", "about": "“Use of proline containing dipeptides” (DSM IP ASSETS B.V., priority 2015, dated 2019)", "type_in_all_cases": "cell-based", "key": {"[1]": {"tested_on": "PCOLCE", "test": "Gene-expression analysis in normal human dermal fibroblasts: PCOLCE", "conditions": "peptide 0.01%, 24 hrs", "procedure": "PCOLCE: This gene encodes a glycoprotein which binds and drives the enzymatic cleavage of type I procollagen upon secretion from the cell, to yield the mature triple helical, highly structured fibrils.\n(§1) Normal human dermal fibroblasts at passage 7 from a donor were cultured in DMEM with L-glutamine 2 mM, Penicillin 50 U/ml-Streptomycin 50 ug/ml and 10% FCS in a 5% CO2 atmosphere at 37° C. After equilibration of cell in 1% FCS for 24 hrs the respective peptides H-(beta-Ala)-Pro-Dab-NH-benzyl [CAS 823202-99-9], respectively N-palmitoyl-Gly-His-Lys [147732-56-7]/N-palmitoyl-Gly-Gln-Pro-Arg [221227-C5-0] (2:1) diluted in growth medium to a concentration of 0.01% were added and the cells were incubated for an additional 24 hrs. At the end of incubation cells were washed in PBS and immediately frozen at −80° C. Total RNA was extracted using NucleoSpin RNA Plus kit (Macherey-Nagel) according to supplier's instructions. cDNA was synthesized by reverse transcription of total RNA using Transcriptor Reverse Transcriptase (Roche). PCR was performed on a LightCycler device (Roche Molecular Systems Inc.) according to manufacturer's instructions. Raw data were analyzed using Microsoft Excel."}, "[2]": {"tested_on": "ADAMTS2", "test": "Gene-expression analysis in normal human dermal fibroblasts: ADAMTS2", "conditions": "peptide 0.01%, 24 hrs", "procedure": "ADAMTS2 is responsible for processing several types of procollagen proteins. Specifically, this enzyme clips a short chain of amino acids off one end of the procollagen. This clipping step is necessary for collagen molecules to function normally and assemble into fibrils outside cells.\nas §1"}, "[3]": {"tested_on": "LOXL2", "test": "Gene-expression analysis in normal human dermal fibroblasts: LOXL2", "conditions": "peptide 0.01%, 24 hrs", "procedure": "LOXL2: This gene encodes a member of the lysyl oxidase gene family that catalyses the first step in the formation of crosslinks in collagens.\nas §1"}, "[4]": {"tested_on": "PLOD3", "test": "Gene-expression analysis in normal human dermal fibroblasts: PLOD3", "conditions": "24 hrs", "procedure": "PLOD3: The enzyme catalyzes the hydroxylation of lysyl residues in collagen-like peptides. The resultant hydroxylysyl groups are attachment sites for carbohydrates in collagen and thus are critical for the stability of intermolecular crosslinks.\nas §1"}}, "data": [{"substance": "H-(beta-Ala)-Pro-Dab-NH-benzyl [H-(β-Ala)-Pro-Dab-NH-benzyl]", "values": [{"measurement": "PCOLCE gene expression", "setting": "[1]", "value": 137, "unit": "%"}, {"measurement": "ADAMTS2 gene expression", "setting": "[2]", "value": 151, "unit": "%"}, {"measurement": "LOXL2 gene expression", "setting": "[3]", "value": 237, "unit": "%"}, {"measurement": "PLOD3 gene expression", "setting": "[4]; normal human dermal fibroblasts, peptide 0.01%", "value": 299, "unit": "%"}, {"measurement": "upregulation of genes involved in collagen fiber maturation (in words)", "setting": "[4]; summary over PLOD3, LOXL2, PCOLCE, ADAMTS2, fibroblasts, 0.01%", "value": "significantly upregulates"}]}]}
